Data: patent US5602156A, “Method for inhibiting metalloproteinase expression” (The United States of America as represented by the …, priority 1994, dated 1997)

What was measured:
MMP-2 [1] = assay: Gelatin zymography of conditioned media from human cancer cell lines (gelatinase activity); assay type: cell-based; conditions: for reduction of activated MMP-2: 20 μM compound 1
Protocol: (§1) Conditioned media for zymogram and Western blot analysis were produced under serum-free conditions. Cells (2 million) were plated in 25 cm^2 flasks in serum-containing medium and cultured overnight. Serum-containingmedium was removed and the cell monolayers were washed twice with DMEM/ITS (DMEM containing insulin (5 μg/mL), transferrin (5 μg/mL), and selenium (5 ng/mL)). The resultant cells were fed with 3 mL of DMEM/ITS and additives as described in the Examples for two 24 hour periods. Conditioned media samples were collected at 24 hours and cells were refed with fresh DMEM/ITS containing the described additives for an additional 24 hours. Conditioned media samples were centrifuged to remove cells and debris then frozen at -20° C. until use. Freeze and thaw cycles of the conditioned media were limited to no more than two.
Quantitation of the effect was evaluated by laser densitometry of the resultant zymograms.
Aliquots of conditioned medium (15 μL) were electrophoresed on gelatin-containing 10% PAGE gels under nonreducing but denaturing conditions. These conditions allow the different gelatin-degrading species (MMPs) to separate by size. […] Bands of clearing, seen after Coomassie blue staining correspond to areas of gelatinase activity.
OVCAR3 conditioned media samples were concentrated 10-fold prior to zymography.
Known concentrated conditioned medium from HT1080 cells was used for identification of the gelatinase species as marked in FIG. 1A: 92 kDa, gelatinase B/MMP-9; 72 kDa, gelatinase A/MMP-2 latent form; 65 kDa intermediate and 62 kDa activated forms of MMP-2. The activated form of MMP-2 results from cleavage of the amino terminal domain.
Lane 1 corresponds to cells treated only with 0.05% DMSO as a control.
Quantitation of the zymograms in FIGS. 1A-1C were carded out using laser densitometry.
The effect of structural analogs on the gelatinase activity of A2058 cells was similarly evaluated.

MMP-2 [2] = assay: Gelatin zymography of A2058 cells, compound 1 with or without TGF-β1 (densitometry); assay type: cell-based, human; conditions: control band = 100%
Protocol: as §1
(§2) A2058 human melanoma cells, human HT1080 fibrosarcoma cells, and OVCAR3 human ovarian cancer cells were incubated with increasing concentrations of compound 1 (0.2-20 μM) or DMSO control (0.05%) and subjected to gelatin zymography. Aliquots of conditioned medium (15 μL) were electrophoresed on gelatin-containing 10% PAGE gels under nonreducing but denaturing conditions. These conditions allow the different gelatin-degrading species (MMPs) to separate by size. The enzymes renature after removal of the SDS by incubation of the gel with 2.5 % Triton X-100, and degrade the gelatin substrate present in the polyacrylamide gel upon overnight incubation in low salt collagenase buffer. Bands of clearing, seen after Coomassie blue staining correspond to areas of gelatinase activity.
(§3) A2058 and HT1080 cells were incubated with compound 1 (2 μM), with or without TGF-β1 (5 ng/mL) for 24 and 48 hours prior to harvest of conditioned media. Aliquots were subjected to gelatin zymography as described in Example 1. Known concentrated conditioned medium from HT1080 cells was used for identification of the gelatinase species (92 kDa, gelatinase B/MMP-9; 72 kDa, gelatinase A/MMP-2 latent form; 65 kDa intermediate and 62 kDa activated forms of MMP-2).
(§4) Lane 1 is the control resulting from treatment of the cells with 0.1% DMSO. Lanes 2 and 3 correspond to those cells which are treated with 2 μM compound 1 in the absence of TGF-β1 for 24 and 48 hours, respectively. Lane 4 corresponds to cells which have been treated with TGF-β1 in the absence of compound 1. Lane 5 corresponds to cells which have been treated with TGF-β1 for 48 hours with compound 1 being added to the incubation mixture for the final 24 hours. Lane 6 corresponds to cells which have been treated for 48 hours with both TGF-β1 and compound 1.
(§5) *The control band was defined as 100% gelatinase activity and the other
(§6) bands were normalized to it. Numbers reflect triplicate measurements from
(§7) each zymogram band of representative zymograms. Standard deviations, not

MMP-2 [3] = assay: Gelatin zymography of HT1080 cells, compound 1 with or without TGF-β1 (densitometry); assay type: cell-based, human; conditions: control band = 100%
Protocol: as §1, §2, §3, §4, §5, §6, §7

gelatinase activity = assay: Gelatin zymography of A2058 and HT1080 cells, compound 1 with or without TGF-β1 (results in words); assay type: cell-based, human
Protocol: as §3, §4

arachidonic acid release = conditions: cited from earlier work
phospholipase C-γ = conditions: cited from earlier work
[4] = with TGF-β1, 2 μM compound 1, 24 hr
[5] = with TGF-β1, 2 μM compound 1, 48 hr
[6] = without TGF-β1, 2 μM compound 1, 24 hr
[7] = without TGF-β1, 2 μM compound 1, 48 hr
[8] = with TGF-β, 2 μM compound 1, 24 hr
[9] = with TGF-β, 2 μM compound 1, 48 hr
[10] = without TGF-β, 2 μM compound 1, 24 hr
[11] = without TGF-β, 2 μM compound 1, 48 hr

**Q.** With NC(=O)c1nnn(Cc2cc(Cl)c(C(=O)c3ccc(Cl)cc3)c(Cl)c2)c1N [Compound 1, 5-amino-l-(4-(4-chlorobenzoyl)-3,5-dichlorobenzyl)-1,2,3-triazole-4-carboxamide] as the compound, how does the MMP-2 activity (MMP-2 [1]; A2058, 10 μM (FIG. 1E)) read?
**A.** The MMP-2 activity was “reduced MMP-2 activity”.

**Q.** And the “reduction of activated MMP-2” value (MMP-2 [1]; A2058)?
**A.** Its value is “almost complete reduction”.

**Q.** What about the “reduction of activated MMP-2” value (MMP-2 [1]; HT1080) of the same compound?
**A.** Its value is 75%.

**Q.** And the “shift of MMP species” value (MMP-2 [1]; HT1080 cell line)?
**A.** Its value is “shift to activated species with subsequent decrease in total activity”.

**Q.** What about the “reduction of activated MMP-2” value (MMP-2 [1]; OVCAR3) of the same compound?
**A.** The value was “almost complete reduction”.

**Q.** And the “reduction in activity of all MMP-2 species” value (MMP-2 [1]; all cell lines (HT1080, A2058, OVCAR3), normalized to DMSO control)?
**A.** The value was “greater than 80%”.

**Q.** What about the “reduction of MMP activity” value (MMP-2 [1]; three human cancer cell lines, 0.2-20 μM) of the same compound?
**A.** Its value is “dose dependent reduction of MMP activity”.

**Q.** What about the “inhibition of MMP-2 gelatinase activity (FIG. 1)” value (MMP-2 [1]; zymograms of FIG. 1) of the same compound?
**A.** Its value is “dose-dependent inhibition”.

**Q.** And the “gelatinase activity, 65 + 62 kDa” value (MMP-2 [2]; [4])?
**A.** The value was 0%.

**Q.** And the “gelatinase activity, 72 kDa” value (MMP-2 [2]; [4])?
**A.** Its value is 44%.

**Q.** And the “gelatinase activity, 65 + 62 kDa” value (MMP-2 [2]; [5])?
**A.** Its value is 0%.

**Q.** And the “gelatinase activity, 72 kDa” value (MMP-2 [2]; [5])?
**A.** Its value is 36%.

**Q.** And the “gelatinase activity, 65 + 62 kDa” value (MMP-2 [2]; [6])?
**A.** Its value is 14%.

**Q.** And the “gelatinase activity, 72 kDa” value (MMP-2 [2]; [6])?
**A.** The value was 84%.

**Q.** What about the “gelatinase activity, 65 + 62 kDa” value (MMP-2 [2]; [7]) of the same compound?
**A.** Its value is 0%.

**Q.** And the “gelatinase activity, 72 kDa” value (MMP-2 [2]; [7])?
**A.** Its value is 45%.

**Q.** And the “gelatinase activity, 65 + 62 kDa” value (MMP-2 [3]; [8])?
**A.** The value was 194%.

**Q.** And the “gelatinase activity, 72 kDa” value (MMP-2 [3]; [8])?
**A.** The value was 52%.

**Q.** And the “gelatinase activity, 65 + 62 kDa” value (MMP-2 [3]; [9])?
**A.** Its value is 116%.

**Q.** What about the “gelatinase activity, 72 kDa” value (MMP-2 [3]; [9]) of the same compound?
**A.** The value was 10%.

**Q.** And the “gelatinase activity, 65 + 62 kDa” value (MMP-2 [3]; [10])?
**A.** The value was 125%.

**Q.** What about the “gelatinase activity, 72 kDa” value (MMP-2 [3]; [10]) of the same compound?
**A.** The value was 10%.

**Q.** What about the “gelatinase activity, 65 + 62 kDa” value (MMP-2 [3]; [11]) of the same compound?
**A.** The value was 24%.

**Q.** What about the “gelatinase activity, 72 kDa” value (MMP-2 [3]; [11]) of the same compound?
**A.** Its value is 0.6%.

**Q.** And the “reduction of gelatinase activity” value (gelatinase activity; A2058 and HT1080, 2 μM, 24 and 48 hr, no TGF-β1)?
**A.** Its value is “increased from 24 to 48 hr exposure”.

**Q.** And the “effect on TGF-β1-increased gelatinase activity” value (gelatinase activity; TGF-β1 48 hr, compound 1 over the final 24 hr)?
**A.** The value was “little effect”.

**Q.** And the “effect on TGF-β1-increased gelatinase activity” value (gelatinase activity; TGF-β1 with compound 1 co-incubation for 48 hr)?
**A.** The value was “inhibited”.

**Q.** What about the arachidonic acid release (arachidonic acid release) of the same compound?
**A.** The arachidonic acid release was “inhibits”.

**Q.** And the “tyrosine phosphorylation with activation of phospholipase C-γ” value (phospholipase C-γ)?
**A.** The value was “inhibits”.
